pIC50: −log10 of the molar value.
How the values were obtained:
[1] = system: T47D; assay: Cytotoxicity against human T47D cells assessed as cell growth at 10^-5 M after 24 hrs by SRB assay; assay type: functional; conditions: read-out: Activity
[2] = system: MDA-MB-435; assay: Cytotoxicity against human MDA-MB-435 cells assessed as cell growth at 10^-5 M after 24 hrs by SRB assay; assay type: functional; conditions: MDA-MB-435, 24 h, read-out: Activity
[3] = system: HT-29; assay: Cytotoxicity against human HT-29 cells assessed as cell growth at 10^-4 M after 24 hrs by SRB assay; assay type: functional; conditions: HT-29, 24 h, read-out: Activity
[4] = system: SK-MEL-2; assay: Cytotoxicity against human SK-MEL-2 cells assessed as cell growth at 10^-8 M after 24 hrs by SRB assay; assay type: functional; conditions: SK-MEL-2, 24 h, read-out: Activity
[5] = system: SK-MEL-5; assay: Cytotoxicity against human SK-MEL-5 cells assessed as cell growth at 10^-7 M after 24 hrs by SRB assay; assay type: functional; conditions: SK-MEL-5, 24 h, read-out: Activity
[6] = Cytotoxicity against human HL-60(TB) cells assessed as cell growth at 10^-7 M after 24 hrs by SRB assay; assay type: functional; conditions: HL-60, 24 h, read-out: Activity
[7] = system: SK-MEL-28; assay: Cytotoxicity against human SK-MEL-28 cells after 24 hrs by SRB assay; assay type: functional, cell-based; conditions: SK-MEL-28, 24 h
[8] = system: CCRF-CEM; assay: Cytotoxicity against human CCRF-CEM cells assessed as cell growth at 10^-8 M after 24 hrs by SRB assay; assay type: functional; conditions: read-out: Activity
[9] = Cytotoxicity against human OVCAR4 cells assessed as cell growth at 10^-8 M after 24 hrs by SRB assay; assay type: functional; conditions: OVCAR-4, 24 h, read-out: Activity
[10] = Cytotoxicity against human COLO205 cells assessed as cell growth at 10^-8 M after 24 hrs by SRB assay; assay type: functional; conditions: COLO 205, 24 h, read-out: Activity
[11] = system: NCI-H23; assay: Cytotoxicity against human NCI-H23 cells assessed as cell growth at 10^-6 M after 24 hrs by SRB assay; assay type: functional; conditions: NCI-H23, 24 h, read-out: Activity
[12] = system: 786-0; assay: Cytotoxicity against human 786-0 cells assessed as cell growth at 10^-4 M after 24 hrs by SRB assay; assay type: functional; conditions: 786-0, 24 h, read-out: Activity
[13] = system: K562; assay: Cytotoxicity against human K562 cells after 24 hrs by SRB assay; assay type: functional; conditions: K562, 24 h
[14] = system: Malme-3M; assay: Cytotoxicity against human MALME-3M cells assessed as cell growth at 10^-4 M after 24 hrs by SRB assay; assay type: functional; conditions: read-out: Activity
[15] = Cytotoxicity against human HCT116 cells assessed as cell growth at 10^-7 M after 24 hrs by SRB assay; assay type: functional; conditions: HCT-116, 24 h, read-out: Activity
[16] = system: MDA-MB-231; assay: Cytotoxicity against human MDA-MB-231 cells assessed as cell growth at 10^-5 M after 24 hrs by SRB assay; assay type: functional; conditions: MDA-MB-231, 24 h, read-out: Activity
[17] = system: SK-MEL-28; assay: Cytotoxicity against human SK-MEL-28 cells assessed as cell growth at 10^-6 M after 24 hrs by SRB assay; assay type: functional; conditions: SK-MEL-28, 24 h, read-out: Activity
[18] = Cytotoxicity against human PC3 cells assessed as cell growth at 10^-5 M after 24 hrs by SRB assay; assay type: functional; conditions: PC-3, 24 h, read-out: Activity
[19] = Cytotoxicity against human SF295 cells assessed as cell growth at 10^-4 M after 24 hrs by SRB assay; assay type: functional; conditions: SF-295, 24 h, read-out: Activity
[20] = system: Malme-3M; assay: Cytotoxicity against human MALME-3M cells assessed as cell growth at 10^-7 M after 24 hrs by SRB assay; assay type: functional; conditions: read-out: Activity
[21] = Cytotoxicity against human OVCAR5 cells assessed as cell growth at 10^-7 M after 24 hrs by SRB assay; assay type: functional; conditions: OVCAR-5, 24 h, read-out: Activity
[22] = Cytotoxicity against human SKOV3 cells assessed as cell growth at 10^-8 M after 24 hrs by SRB assay; assay type: functional; conditions: SK-OV-3, 24 h, read-out: Activity
[23] = system: ACHN; assay: Cytotoxicity against human ACHN cells assessed as cell growth at 10^-8 M after 24 hrs by SRB assay; assay type: functional; conditions: read-out: Activity
[24] = system: Malme-3M; assay: Cytotoxicity against human MALME-3M cells after 24 hrs by SRB assay; assay type: functional, cell-based
[25] = Cytotoxicity against human SNB75 cells assessed as cell growth at 10^-4 M after 24 hrs by SRB assay; assay type: functional; conditions: SNB-75, 24 h, read-out: Activity
[26] = system: KM12; assay: Cytotoxicity against human KM12 cells assessed as cell growth at 10^-6 M after 24 hrs by SRB assay; assay type: functional; conditions: KM12, 24 h, read-out: Activity
[27] = system: HT-29; assay: Cytotoxicity against human HT-29 cells assessed as cell growth at 10^-7 M after 24 hrs by SRB assay; assay type: functional; conditions: HT-29, 24 h, read-out: Activity
[28] = Cytotoxicity against human HOP62 cells assessed as cell growth at 10^-7 M after 24 hrs by SRB assay; assay type: functional; conditions: HOP-62, 24 h, read-out: Activity
[29] = system: Malme-3M; assay: Cytotoxicity against human MALME-3M cells assessed as cell growth at 10^-8 M after 24 hrs by SRB assay; assay type: functional; conditions: read-out: Activity
[30] = Cytotoxicity against human SW620 cells assessed as cell growth at 10^-6 M after 24 hrs by SRB assay; assay type: functional; conditions: SW-620, 24 h, read-out: Activity
[31] = system: NCI-H322M; assay: Cytotoxicity against human NCI-H322M cells after 24 hrs by SRB assay; assay type: functional
[32] = system: K562; assay: Cytotoxicity against human K562 cells assessed as cell growth at 10^-8 M after 24 hrs by SRB assay; assay type: functional; conditions: K562, 24 h, read-out: Activity
[33] = system: SK-MEL-28; assay: Cytotoxicity against human SK-MEL-28 cells assessed as cell growth at 10^-4 M after 24 hrs by SRB assay; assay type: functional; conditions: SK-MEL-28, 24 h, read-out: Activity
[34] = Cytotoxicity against human SF539 cells assessed as cell growth at 10^-5 M after 24 hrs by SRB assay; assay type: functional; conditions: SF-539, 24 h, read-out: Activity
[35] = Cytotoxicity against human UO31 cells assessed as cell growth at 10^-8 M after 24 hrs by SRB assay; assay type: functional; conditions: UO-31, 24 h, read-out: Activity
[36] = Cytotoxicity against human UACC62 cells assessed as cell growth at 10^-5 M after 24 hrs by SRB assay; assay type: functional; conditions: UACC-62, 24 h, read-out: Activity
[37] = read-out: LC50 (the source's name)
[38] = read-out: pLC50 (the source's name) (converted)

## O=C(Nc1cc(-c2cccnc2)nc(NCCCN2CCOCC2)n1)c1cc(Br)cc(C(F)(F)F)c1
[1]
  growth at 10 µM: 21%
[2]
  growth at 10 µM: -90%
[3]
  growth at 100 µM: -83%
[4]
  growth at 0.01 µM: 109%
[5]
  growth at 0.1 µM: 95%
[6]
  growth at 0.1 µM: 96%
[7]
  pIC50: 5.76
[7]; read-out: GI50
  GI50: 1.73 µM
[7]; [37]
  CC50: 7.02 µM
[7]; read-out: TGI
  TGI: 3.48 µM
[7]; read-out: pGI50 (converted)
  GI50: 1.74 µM
[7]; [38]
  CC50: 7.08 µM
[7]; read-out: pTGI (converted)
  TGI: 3.47 µM
[8]
  growth at 0.01 µM: 100%
[9]
  growth at 0.01 µM: 95%
[10]
  growth at 0.01 µM: 104%
[11]
  growth at 1 µM: 89%
[12]
  growth at 100 µM: -87%
[13]; read-out: GI50
  GI50: 2.81 µM
[13]; [37]
  CC50: > 100 µM
[13]; read-out: TGI
  TGI: 21.7 µM
[13]; read-out: pGI50 (converted)
  GI50: 2.82 µM
[13]; [38]
  CC50: > 100 µM
[13]; read-out: pTGI (converted)
  TGI: 21.9 µM
[14]
  growth at 100 µM: -78%
[15]
  growth at 0.1 µM: 107%
[16]
  growth at 10 µM: -59%
[17]
  growth at 1 µM: 89%
[18]
  growth at 10 µM: 23%
[19]
  growth at 100 µM: -92%
[20]
  growth at 0.1 µM: 95%
[21]
  growth at 0.1 µM: 92%
[22]
  growth at 0.01 µM: 97%
[23]
  growth at 0.01 µM: 95%
[24]
  pIC50: 5.75
[24]; read-out: GI50
  GI50: 1.76 µM
[24]; [37]
  CC50: 7.28 µM
[24]; read-out: TGI
  TGI: 3.58 µM
[24]; read-out: pGI50 (converted)
  GI50: 1.78 µM
[24]; [38]
  CC50: 7.24 µM
[24]; read-out: pTGI (converted)
  TGI: 3.55 µM
[25]
  growth at 100 µM: -99%
[26]
  growth at 1 µM: 96%
[27]
  growth at 0.1 µM: 102%
[28]
  growth at 0.1 µM: 85%
[29]
  growth at 0.01 µM: 99%
[30]
  growth at 1 µM: 95%
[31]; read-out: GI50
  GI50: 3.72 µM
[31]; [37]
  CC50: 43.2 µM
[31]; read-out: TGI
  TGI: 15 µM
[31]; read-out: pGI50 (converted)
  GI50: 3.72 µM
[31]; [38]
  CC50: 43.7 µM
[31]; read-out: pTGI (converted)
  TGI: 15.1 µM
[32]
  growth at 0.01 µM: 107%
[33]
  growth at 100 µM: -77%
[34]
  growth at 10 µM: -73%
[35]
  growth at 0.01 µM: 95%
[36]
  growth at 10 µM: -50%
